Test system: calvarial skull bones (hemicalvaria)
Experiment: Calvarial skull assay (bone organ culture)
Format: cell-based, CD1 mice
Method: CD1 pups are harvested around birth from CD1 female mice (received from Janvier (Le Genest St Isle, France) when they were 11 days pregnant). Pups are decapitated and the calvarial skull is dissected and split into 2 hemicalvaria. Hemicalvaria are blotted using sterile gauze, weighed and cultured in 24 well plates (MEMalpha or BGJb-Fitton-Jackson medium containing 50 μg/ml L-ascorbic acid (Sigma, A-4034), 5 mM β-glycerophosphate (Sigma, G-9891) and Penicillin-Streptomycin (Invitrogen Cat # 15140-122)). Small molecules (ligands, agonists, antagonists) are tested in at least three-fold at a minimum of 3 concentrations. Each small molecule is added to the medium on day 0 and added again when refreshing the medium (every 2-3 days). Three to 16 days after the start of the experiment, skulls are weighed again after blotting them dry using sterile gauze. The weight difference is calculated, expressed as percent weight change and the mean and standard deviations (SD) are calculated for the triplicate measurements. Data are analyzed using the Student's t-test.
The formation of new osteoid is analyzed histologically as follows: hemicalvaria are fixed in 10% buffered formalin for at least 2 days, decalcified in 10% EDTA overnight, processed through graded alcohols and embedded in paraffin wax. Three to 10 μm sections are prepared of the calvaria and stained with hematoxylin and eosin (H&E). Healthy cells, dead cells, old and new bone, and collagen are identified by their distinctive morphology and colouring observed after H&E staining. The surfaces taken by these are measured stereologically (μm^2 readout) and termed Osteoblast area, Debris area, Native and New bone area, Collagen area and Total area (sum of the previous 5 areas), respectively. In addition, the thickness (μm readout) is measured at 8 positions, evenly spaced over the section.
The histological readout of the calvarial skull assay is developed using known osteogenic agents. Hemicalvaria were treated with recombinant human parathyroid hormone (rhPTH).
T0901317 is added to the culture medium of the dissected hemicalvaria at the day of dissection at several doses (19.5, 78.1 and 313 nM), in fourfold. The concentration of the solvent (vehicle), DMSO, is fixed at a final concentration of 0.05%. The medium, containing T0901317 or vehicle control is refreshed every 2-3 days. Hemicalvaria are harvested 7 days after the initiation of the experiment and subjected to the histological analysis described above.

[1] = 19.5, 78.1 and 313 nM, 7 days, histology (H&E)

O=S(=O)(c1ccccc1)N(CC(F)(F)F)c1ccc(C(O)(C(F)(F)F)C(F)(F)F)cc1 [T0901317, N-(2,2,2-trifluoroethyl)-N-[4-[2,2,2-trifluoro-1-hydroxy-1-(trifluoromethyl)ethyl]phenyl]-benzenesulfonamide]
dose-response activity towards areas of osteoblast (19.5, 78.1 and 313 nM, 7 days): Dose-response activity of the compound is observed
dose-response activity towards thickness (19.5, 78.1 and 313 nM, 7 days): Dose-response activity of the compound is observed
dose-response activity towards total area (sum of all areas measured) (19.5, 78.1 and 313 nM, 7 days): Dose-response activity of the compound is observed
areas of collagen [1]: Statistically significant increases
areas of new bone [1]: Statistically significant increases
areas of osteoblast [1]: Statistically significant increases
weight increases in calvarial skull explants (FIG. 18): Weight increases

Source: patent publication US20060020036A1, “Methods and compositions to promote bone homestasis” (priority 2004, published 2006)
